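Assay format: 96-well plates, 48-hour exposure. TGI is the concentration that stops growth completely.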
Tests used:
Test in all cases: NCI tumour cell line growth inhibition, 48 h
[1] = test system: UO-31 renal
[2] = test system: MOLT-4 leukemia
[3] = test system: A549 NSCLC
[4] = test system: SR leukemia
[5] = test system: TK-10 renal
[6] = test system: OVCAR-8 ovarian
[7] = test system: 786-0 renal
[8] = test system: SF-268 CNS
[9] = test system: SF-295 CNS
[10] = test system: SK-MEL-5 melanoma
[11] = test system: SK-MEL-2 melanoma
[12] = test system: UACC-62 melanoma
[13] = test system: NCI-H522 lung
[14] = test system: UACC-257 melanoma
[15] = test system: KM12 colon
[16] = test system: HCT-116 colon
[17] = test system: HOP-92 NSCLC
[18] = test system: ACHN renal
[19] = test system: IGROV1 ovarian
[20] = test system: SNB-19 CNS
[21] = test system: HCT-15 colon
[22] = test system: XF 498 CNS
[23] = test system: SW-620 colon
[24] = test system: DMS 273 small cell lung
[25] = test system: K-562 leukemia
[26] = test system: RPMI-8226 leukemia
[27] = test system: RXF-631 renal
[28] = test system: OVCAR-5 ovarian
[29] = test system: SNB-78 CNS
[30] = test system: HL-60(TB) leukemia
[31] = test system: SNB-75 CNS
[32] = test system: CCRF-CEM leukemia
[33] = test system: DLD-1 colon
[34] = test system: M14 melanoma
[35] = test system: NCI-H23 lung
[36] = test system: RXF 393 renal
[37] = test system: HOP-62 NSCLC
[38] = test system: M19-MEL melanoma
[39] = test system: LXFL 529 NSCLC
[40] = test system: COLO 205 colon
[41] = test system: MALME-3M melanoma
[42] = test system: SN12C renal
[43] = test system: NCI-H226 lung
[44] = test system: SK-OV-3 ovarian
[45] = test system: HOP-18 NSCLC
[46] = test system: DMS 114 small cell lung
[47] = test system: EKVX NSCLC
[48] = test system: CAKI-1 renal
[49] = test system: LOX IMVI melanoma
[50] = test system: A498 renal
[51] = test system: HCC-2998 colon
[52] = test system: U251 CNS
[53] = test system: OVCAR-3 ovarian
[54] = test system: SK-MEL-28 melanoma
[55] = test system: KM20L2 colon
[56] = test system: NCI-H460 lung
[57] = test system: OVCAR-4 ovarian
[58] = test system: HT29 colon

CCCCCCCC(=O)OC(CBr)COC(=O)C(C)(C)C (stereo not drawn)
TGI [1]: > 100 µM | TGI [2]: 75.2 µM | TGI [3]: > 100 µM | TGI [4]: 57.1 µM | TGI [5]: > 100 µM | TGI [6]: > 100 µM | TGI [7]: > 100 µM | TGI [8]: > 100 µM | TGI [9]: > 100 µM | TGI [10]: > 100 µM | TGI [11]: > 100 µM | TGI [12]: > 100 µM | TGI [13]: > 100 µM | TGI [14]: > 100 µM | TGI [15]: > 100 µM | TGI [16]: > 100 µM | TGI [17]: > 100 µM | TGI [18]: > 100 µM | TGI [19]: > 100 µM | TGI [20]: > 100 µM | TGI [21]: > 100 µM | TGI [22]: > 100 µM | TGI [23]: > 100 µM | TGI [24]: > 100 µM | TGI [25]: > 100 µM | TGI [26]: > 71.2 µM | TGI [27]: > 100 µM | TGI [28]: > 100 µM | TGI [29]: > 100 µM | TGI [30]: > 100 µM | TGI [31]: 68.8 µM | TGI [32]: > 87.2 µM | TGI [33]: > 100 µM | TGI [34]: > 100 µM | TGI [35]: > 100 µM | TGI [36]: > 100 µM | TGI [37]: > 100 µM | TGI [38]: > 100 µM | TGI [39]: > 100 µM | TGI [40]: > 100 µM | TGI [41]: > 100 µM | TGI [42]: > 100 µM | TGI [43]: > 100 µM | TGI [44]: > 100 µM | TGI [45]: > 100 µM | TGI [46]: > 100 µM | TGI [47]: > 100 µM | TGI [48]: > 100 µM | TGI [49]: > 100 µM | TGI [50]: > 100 µM | TGI [51]: > 100 µM | TGI [52]: > 100 µM | TGI [53]: > 100 µM | TGI [54]: > 100 µM | TGI [55]: > 100 µM | TGI [56]: > 100 µM | TGI [57]: > 100 µM | TGI [58]: > 100 µM

From PubChem BioAssay (NCI)
